Active and inactive are the calls of the source. No cut-off for these calls is given here.
Key:
[1] = system: Epidermal growth factor receptor (Homo sapiens), P00533 [UNDEFINED MUTATION]; assay: Binding affinity to human partial length EGFR L747-T751del/Sins mutant expressed in bacterial expression system assessed as residual binding level at 10 uM by Kinomescan method relative to control
[2] = target: Wee1-like protein kinase (Homo sapiens) (UniProt P30291); assay: Binding affinity to wild-type human partial length WEE1 (M291 to K575 residues) expressed in bacterial expression system assessed as residual binding level at 10 uM by Kinomescan method relative to control
Wee1-like protein kinase (Homo sapiens), sequence (P30291 whole entry, looked up, the tested form may be a part): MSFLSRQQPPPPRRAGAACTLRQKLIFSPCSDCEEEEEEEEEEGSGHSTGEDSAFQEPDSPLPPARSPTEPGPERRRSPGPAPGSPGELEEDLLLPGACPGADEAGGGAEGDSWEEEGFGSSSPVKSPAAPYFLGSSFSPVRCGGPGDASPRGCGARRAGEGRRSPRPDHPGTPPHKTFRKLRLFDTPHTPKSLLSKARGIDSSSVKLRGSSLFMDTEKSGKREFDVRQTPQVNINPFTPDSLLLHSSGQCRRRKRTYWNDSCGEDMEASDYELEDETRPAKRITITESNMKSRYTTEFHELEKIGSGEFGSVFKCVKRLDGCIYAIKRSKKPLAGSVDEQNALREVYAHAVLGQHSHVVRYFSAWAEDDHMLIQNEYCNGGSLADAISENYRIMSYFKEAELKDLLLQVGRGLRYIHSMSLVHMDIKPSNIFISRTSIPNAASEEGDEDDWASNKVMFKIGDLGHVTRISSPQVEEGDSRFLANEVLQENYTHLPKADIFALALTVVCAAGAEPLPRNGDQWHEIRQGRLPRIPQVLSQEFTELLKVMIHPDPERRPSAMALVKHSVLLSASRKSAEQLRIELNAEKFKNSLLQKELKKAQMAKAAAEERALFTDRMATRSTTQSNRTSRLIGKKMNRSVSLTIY

[3] = system: Proto-oncogene tyrosine-protein kinase receptor Ret (Homo sapiens), P07949 [V804L]; assay: Binding affinity to human partial length RET V804L mutant (E713 to D1014 residues) expressed in bacterial expression system assessed as residual binding level at 10 uM by Kinomescan method relative to control
[4] = target: Muscle, skeletal receptor tyrosine-protein kinase (Homo sapiens) (UniProt O15146); assay: Binding affinity to wild-type human partial length MUSK (M553 to V869 residues) expressed in bacterial expression system assessed as residual binding level at 10 uM by Kinomescan method relative to control
[5] = target: SRSF protein kinase 3 (Homo sapiens) (UniProt Q9UPE1); assay: Binding affinity to wild-type human partial length SRPK3 (P41 to P567 residues) expressed in bacterial expression system assessed as residual binding level at 10 uM by Kinomescan method relative to control
[6] = target: Serine/threonine-protein kinase tousled-like 2 (Homo sapiens) (UniProt Q86UE8); assay: Binding affinity to wild-type human partial length TLK2 (E424 to N749 residues) expressed in bacterial expression system assessed as residual binding level at 10 uM by Kinomescan method relative to control
[7] = target: RAC-alpha serine/threonine-protein kinase (Homo sapiens) (UniProt P31749); assay: Binding affinity to wild-type human partial length AKT1 expressed in bacterial expression system assessed as residual binding level at 10 uM by Kinomescan method relative to control
[8] = system: Jurkat; assay: Cytoprotection against fas ligand/cycloheximide/Z-VAD-fmk-induced necroptosis in human Jurkat cells at 4 to 25 uM measured after 20 hrs by WST-8 assay; type: functional, cell-based
[9] = system: Receptor-type tyrosine-protein kinase FLT3 (Homo sapiens), P36888 [D835H]; assay: Binding affinity to human partial length FLT3 D835H mutant (V592 to Y969 residues) expressed in bacterial expression system assessed as residual binding level at 10 uM by Kinomescan method relative to control
[10] = target: STE20-like serine/threonine-protein kinase (Homo sapiens) (UniProt Q9H2G2); assay: Binding affinity to wild-type human partial length SLK (S14 to A307 residues) expressed in bacterial expression system assessed as residual binding level at 10 uM by Kinomescan method relative to control
[11] = target: Serine/threonine-protein kinase Sgk1 (Homo sapiens) (UniProt O00141); assay: Binding affinity to wild-type human partial length SGK (I60 to L431 residues) expressed in mammalian expression system assessed as residual binding level at 10 uM by Kinomescan method relative to control
[12] = target: Mitogen-activated protein kinase kinase kinase kinase 5 (Homo sapiens) (UniProt Q9Y4K4); assay: Binding affinity to wild-type human partial length MAP4K5 (M1 to P297 residues) expressed in bacterial expression system assessed as residual binding level at 10 uM by Kinomescan method relative to control
[13] = target: Aurora kinase C (Homo sapiens) (UniProt Q9UQB9); assay: Binding affinity to wild-type human full length AURKC (M1 to S275 residues) expressed in bacterial expression system assessed as residual binding level at 10 uM by Kinomescan method relative to control
Aurora kinase C (Homo sapiens), sequence (Q9UQB9 whole entry, the tested form may be a part): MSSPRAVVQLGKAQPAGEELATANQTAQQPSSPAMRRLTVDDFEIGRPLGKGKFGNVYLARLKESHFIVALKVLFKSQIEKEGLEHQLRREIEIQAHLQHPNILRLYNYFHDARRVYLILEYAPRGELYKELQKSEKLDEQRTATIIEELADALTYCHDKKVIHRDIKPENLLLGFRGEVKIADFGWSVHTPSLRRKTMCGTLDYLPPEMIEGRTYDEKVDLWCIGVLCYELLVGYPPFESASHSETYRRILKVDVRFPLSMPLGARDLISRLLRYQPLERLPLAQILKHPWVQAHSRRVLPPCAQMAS

[14] = target: Serine/threonine-protein kinase N1 (Homo sapiens) (UniProt Q16512); assay: Binding affinity to wild-type human partial length PKN1 (E598 to C948 residues) expressed in bacterial expression system assessed as residual binding level at 10 uM by Kinomescan method relative to control
[15] = target: Serine/threonine-protein kinase D3 (Homo sapiens) (UniProt O94806); assay: Binding affinity to wild-type human partial length PRKD3 (S543 to E863 residues) expressed in bacterial expression system assessed as residual binding level at 10 uM by Kinomescan method relative to control
Serine/threonine-protein kinase D3 (Homo sapiens), sequence (O94806 whole entry, the tested form may be a part): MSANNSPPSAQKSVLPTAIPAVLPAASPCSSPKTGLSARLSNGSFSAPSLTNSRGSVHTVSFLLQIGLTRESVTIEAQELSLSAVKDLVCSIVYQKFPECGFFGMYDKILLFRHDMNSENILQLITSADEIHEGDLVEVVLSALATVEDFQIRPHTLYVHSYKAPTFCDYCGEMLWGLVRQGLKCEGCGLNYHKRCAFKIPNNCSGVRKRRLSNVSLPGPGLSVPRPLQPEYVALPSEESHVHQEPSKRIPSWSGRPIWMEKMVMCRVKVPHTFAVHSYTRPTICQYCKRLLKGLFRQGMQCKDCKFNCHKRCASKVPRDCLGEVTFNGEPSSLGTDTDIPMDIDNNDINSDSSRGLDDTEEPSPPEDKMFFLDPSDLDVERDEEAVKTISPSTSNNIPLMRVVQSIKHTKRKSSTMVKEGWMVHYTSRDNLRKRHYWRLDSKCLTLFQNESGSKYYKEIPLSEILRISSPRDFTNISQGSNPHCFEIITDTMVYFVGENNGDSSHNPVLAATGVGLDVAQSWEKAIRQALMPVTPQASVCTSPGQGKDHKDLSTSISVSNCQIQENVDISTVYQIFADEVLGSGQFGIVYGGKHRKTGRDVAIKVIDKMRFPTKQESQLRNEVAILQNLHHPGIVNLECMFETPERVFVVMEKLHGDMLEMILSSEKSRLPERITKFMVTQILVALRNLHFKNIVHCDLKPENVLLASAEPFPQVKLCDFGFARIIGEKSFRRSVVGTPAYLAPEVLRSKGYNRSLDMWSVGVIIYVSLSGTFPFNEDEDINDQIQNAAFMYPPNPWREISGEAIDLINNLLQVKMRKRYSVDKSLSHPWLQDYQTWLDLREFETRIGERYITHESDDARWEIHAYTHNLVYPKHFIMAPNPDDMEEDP

[16] = target: Serine/threonine-protein kinase D1 (Homo sapiens) (UniProt Q15139); assay: Binding affinity to wild-type human partial length PRKD1 (G551 to E870 residues) expressed in bacterial expression system assessed as residual binding level at 10 uM by Kinomescan method relative to control
[17] = target: Calcium/calmodulin-dependent protein kinase type IV (Homo sapiens) (UniProt Q16566); assay: Binding affinity to wild-type human partial length CAMK4 (A22 to A322 residues) expressed in bacterial expression system assessed as residual binding level at 10 uM by Kinomescan method relative to control
[18] = target: Glycogen synthase kinase-3 alpha (Homo sapiens) (UniProt P49840); assay: Binding affinity to wild-type human full length GSK3A (M1 to S483 residues) expressed in bacterial expression system assessed as residual binding level at 10 uM by Kinomescan method relative to control
[19] = target: Atypical kinase COQ8B, mitochondrial (Homo sapiens) (UniProt Q96D53); assay: Binding affinity to wild-type human full length ADCK4 (M1 to S544 residues) expressed in bacterial expression system assessed as residual binding level at 10 uM by Kinomescan method relative to control
[20] = system: Neutrophil; assay: Inhibition of PMA-induced NETosis in human neutrophils assessed as reduction in lipid peroxidation at 20 uM preincubated for 30 mins followed by PMA stimulation measured after 30 mins by C11-Bodipy fluorescent dye based flow cytometry
[21] = system: Mast/stem cell growth factor receptor Kit (Homo sapiens), P10721 [L576P]; assay: Binding affinity to human partial length KIT L576P mutant (Y545 to D952 residues) expressed in bacterial expression system assessed as residual binding level at 10 uM by Kinomescan method relative to control
Mast/stem cell growth factor receptor Kit (Homo sapiens), P10721 [L576P], sequence (P10721 whole entry L576P, the tested form may be a part): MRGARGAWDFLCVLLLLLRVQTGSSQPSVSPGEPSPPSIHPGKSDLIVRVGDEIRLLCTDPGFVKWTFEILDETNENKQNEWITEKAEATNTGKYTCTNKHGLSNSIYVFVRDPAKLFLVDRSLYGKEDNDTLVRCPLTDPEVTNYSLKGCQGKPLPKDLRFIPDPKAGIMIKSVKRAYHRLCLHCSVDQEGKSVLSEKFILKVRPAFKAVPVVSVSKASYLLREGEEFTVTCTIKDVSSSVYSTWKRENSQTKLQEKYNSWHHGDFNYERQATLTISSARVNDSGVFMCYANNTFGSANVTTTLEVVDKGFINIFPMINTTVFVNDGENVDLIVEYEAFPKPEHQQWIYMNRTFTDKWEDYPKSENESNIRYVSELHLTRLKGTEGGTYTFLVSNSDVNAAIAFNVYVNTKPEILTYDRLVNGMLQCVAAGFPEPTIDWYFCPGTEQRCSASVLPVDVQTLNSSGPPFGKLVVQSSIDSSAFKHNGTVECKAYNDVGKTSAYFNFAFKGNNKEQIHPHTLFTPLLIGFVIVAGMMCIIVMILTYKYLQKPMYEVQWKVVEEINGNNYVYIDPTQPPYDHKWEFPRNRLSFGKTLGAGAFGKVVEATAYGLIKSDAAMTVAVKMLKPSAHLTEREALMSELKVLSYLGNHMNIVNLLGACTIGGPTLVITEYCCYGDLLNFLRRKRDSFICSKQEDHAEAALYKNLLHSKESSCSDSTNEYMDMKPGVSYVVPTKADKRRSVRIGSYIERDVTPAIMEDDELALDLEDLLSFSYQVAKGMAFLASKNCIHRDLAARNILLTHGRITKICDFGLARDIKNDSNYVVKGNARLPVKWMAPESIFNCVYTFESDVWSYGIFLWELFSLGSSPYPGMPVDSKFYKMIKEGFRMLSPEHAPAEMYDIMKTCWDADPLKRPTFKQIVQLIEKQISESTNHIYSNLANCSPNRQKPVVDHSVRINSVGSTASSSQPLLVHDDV

[22] = target: Myosin-IIIb (Homo sapiens) (UniProt Q8WXR4); assay: Binding affinity to wild-type human partial length MYO3B (M1 to D357 residues) expressed in bacterial expression system assessed as residual binding level at 10 uM by Kinomescan method relative to control
[23] = target: Serine/threonine-protein kinase PAK 6 (Homo sapiens) (UniProt Q9NQU5); assay: Binding affinity to wild-type human partial length PAK6 (N298 to C681 residues) expressed in bacterial expression system assessed as residual binding level at 10 uM by Kinomescan method relative to control
[24] = target: Macrophage colony-stimulating factor 1 receptor (Homo sapiens) (UniProt P07333); assay: Binding affinity to wild-type human partial length CSF1R (I564 to S939 residues) expressed in bacterial expression system assessed as residual binding level at 10 uM by Kinomescan method relative to control
Macrophage colony-stimulating factor 1 receptor (Homo sapiens), sequence (P07333 whole entry, the tested form may be a part): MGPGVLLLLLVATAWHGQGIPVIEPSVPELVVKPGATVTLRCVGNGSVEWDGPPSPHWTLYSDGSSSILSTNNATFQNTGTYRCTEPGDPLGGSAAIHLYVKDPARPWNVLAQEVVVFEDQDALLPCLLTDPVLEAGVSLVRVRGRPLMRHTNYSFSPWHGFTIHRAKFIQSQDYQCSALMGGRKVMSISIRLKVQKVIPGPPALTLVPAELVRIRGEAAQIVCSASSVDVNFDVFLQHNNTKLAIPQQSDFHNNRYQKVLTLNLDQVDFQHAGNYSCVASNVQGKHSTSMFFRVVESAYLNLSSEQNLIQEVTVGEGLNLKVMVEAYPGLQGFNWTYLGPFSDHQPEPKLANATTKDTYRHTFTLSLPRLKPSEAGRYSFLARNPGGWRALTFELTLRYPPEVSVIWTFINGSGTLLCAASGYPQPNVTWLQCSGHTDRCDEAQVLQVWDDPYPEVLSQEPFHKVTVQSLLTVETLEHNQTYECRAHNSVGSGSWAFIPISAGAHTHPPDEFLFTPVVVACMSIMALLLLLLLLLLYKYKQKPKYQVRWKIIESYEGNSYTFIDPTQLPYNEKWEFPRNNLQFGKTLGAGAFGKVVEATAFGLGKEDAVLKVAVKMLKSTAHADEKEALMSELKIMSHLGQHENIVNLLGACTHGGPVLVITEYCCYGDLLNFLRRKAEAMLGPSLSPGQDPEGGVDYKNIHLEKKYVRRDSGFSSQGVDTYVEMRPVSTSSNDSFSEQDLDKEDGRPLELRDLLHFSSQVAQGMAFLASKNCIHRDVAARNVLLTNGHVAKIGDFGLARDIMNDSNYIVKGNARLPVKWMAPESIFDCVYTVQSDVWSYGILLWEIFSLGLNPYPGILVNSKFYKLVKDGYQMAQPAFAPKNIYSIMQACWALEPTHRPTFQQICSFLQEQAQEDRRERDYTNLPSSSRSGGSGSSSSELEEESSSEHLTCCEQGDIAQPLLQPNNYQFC

[25] = target: Serine/threonine-protein kinase Nek11 (Homo sapiens) (UniProt Q8NG66); assay: Binding affinity to wild-type human partial length NEK11 (M1 to E313 residues) expressed in mammalian expression system assessed as residual binding level at 10 uM by Kinomescan method relative to control

Epidermal growth factor receptor (Homo sapiens), P00533 [UNDEFINED MUTATION], sequence (P00533 whole entry, looked up, stated change not applied, the tested form may be a part): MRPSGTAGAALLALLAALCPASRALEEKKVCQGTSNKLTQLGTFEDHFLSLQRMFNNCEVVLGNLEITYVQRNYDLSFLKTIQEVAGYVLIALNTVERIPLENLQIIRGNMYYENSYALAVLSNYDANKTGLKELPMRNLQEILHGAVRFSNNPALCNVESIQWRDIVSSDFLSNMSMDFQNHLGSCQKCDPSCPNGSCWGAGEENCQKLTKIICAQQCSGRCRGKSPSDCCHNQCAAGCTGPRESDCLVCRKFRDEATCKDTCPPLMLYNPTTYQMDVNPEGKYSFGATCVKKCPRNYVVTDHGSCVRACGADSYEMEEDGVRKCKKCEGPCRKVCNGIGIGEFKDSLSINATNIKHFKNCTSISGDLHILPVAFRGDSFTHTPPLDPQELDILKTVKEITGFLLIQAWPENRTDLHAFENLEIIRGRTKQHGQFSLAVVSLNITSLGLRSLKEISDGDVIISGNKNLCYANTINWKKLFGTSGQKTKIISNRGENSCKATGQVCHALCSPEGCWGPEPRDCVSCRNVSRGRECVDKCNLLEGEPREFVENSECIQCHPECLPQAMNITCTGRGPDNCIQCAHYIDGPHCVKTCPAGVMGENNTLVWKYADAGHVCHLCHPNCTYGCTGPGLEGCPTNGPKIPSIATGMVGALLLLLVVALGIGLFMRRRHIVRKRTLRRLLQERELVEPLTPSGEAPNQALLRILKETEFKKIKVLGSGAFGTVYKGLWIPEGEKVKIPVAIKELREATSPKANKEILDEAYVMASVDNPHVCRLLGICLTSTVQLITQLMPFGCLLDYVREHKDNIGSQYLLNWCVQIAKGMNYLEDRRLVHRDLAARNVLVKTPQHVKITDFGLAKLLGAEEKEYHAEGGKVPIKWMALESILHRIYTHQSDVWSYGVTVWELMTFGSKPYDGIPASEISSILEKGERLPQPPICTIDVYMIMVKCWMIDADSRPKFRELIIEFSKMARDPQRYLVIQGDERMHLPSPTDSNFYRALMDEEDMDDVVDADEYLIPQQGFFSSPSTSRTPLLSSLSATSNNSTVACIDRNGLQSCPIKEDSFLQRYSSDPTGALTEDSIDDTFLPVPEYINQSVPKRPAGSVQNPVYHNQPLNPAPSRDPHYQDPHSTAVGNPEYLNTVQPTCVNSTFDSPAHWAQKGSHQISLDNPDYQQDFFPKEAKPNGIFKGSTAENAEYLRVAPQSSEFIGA

CC(C)N1C(=O)C(NCCCN(C)C)=C(c2cn(C)c3ccccc23)C1=O.Cl
Activity [1]: 94% | Activity [2]: 100% | Activity [3]: 90% | Activity [4]: 100% | Activity [5]: 100% | Activity [6]: 84% | Activity [7]: 95% | Activity [8]: inactive | Activity [9]: 88% | Activity [10]: 78% | Activity [11]: 95% | Activity [12]: 100% | Activity [13]: 92% | Activity [14]: 100% | Activity [15]: 91% | Activity [16]: 96% | Activity [17]: 80% | Activity [18]: 83% | Activity [19]: 99% | inhibition [20]: Active | Activity [21]: 87% | Activity [22]: 90% | Activity [23]: 100% | Activity [24]: 97% | Activity [25]: 100%
